Data published in PubChem BioAssay (NCI).
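Assay format: 96-well plates, 48-hour exposure. The concentration for full growth arrest is given as TGI.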 Where a SMILES comes first, the peptide text is derived from it. The star is where a group is joined. Cbz = O=C(OCc1ccccc1)*

What follows are molecules tested on IGROV1 ovarian (assay: DTP human tumour cell line panel, 48 h).

Row | Structure (SMILES) | TGI [µM]
1 | CN(CC(=O)O)c1ncc2c(n1)CCCC2 | > 100
2 | N#Cc1c(N)nc2n[nH]c(N)c2c1-c1ccc(Cl)cc1 | 7.39
3 | Oc1[nH]c2ccccc2c1N=NC(=S)Nc1cccc(Cl)c1 | 89
4 | COc1cc(NS(C)(=O)=O)ccc1Nc1c2ccccc2nc2c1[nH]c1ccc(NC3OC(CO)C(O)C(O)C3O)cc12 (configuration not stated) | 3.47
5 | O=C(O)CCC(NC(=O)OCc1ccccc1)C(=O)NC(Cc1cnc[nH]1)C(=O)O (stereo not drawn) (Cbz-Glu-His-OH; configuration not given here) | > 100
6 | O=[N+]([O-])/C(C(Cl)=C(Cl)Cl)=C(/Cl)Sc1ccccc1 | 4.69
7 | CCOC(=O)c1nnc2c(C(=O)OCC)c3ccccc3n2c1N | 38.2
8 | Clc1ccc(C2C3COc4ccccc4C3=NN2c2ccccc2)cc1 (configuration not stated) | > 100
9 | NC(=O)C(C(N)=O)=C(O)C(=O)/C=C(\O)c1ccccc1 | > 100
10 | Cn1ccc(C(=O)NCCN(CCNC(=O)c2ccn(C)c(=O)c2O)CCNC(=O)c2cccc(=O)n2O)c(O)c1=O | > 100
11 | Cc1cc(S(=O)(=O)Nc2n[nH]c(N)n2)c(SCC(=O)O)cc1Cl | > 10
12 | CCOC(=O)C12OC(CCC1=O)C(C(=O)OC)=C2C(=O)OC (configuration not stated) | > 10
13 | CC(=O)c1[nH]c(NCc2ccccc2)c(C(=S)Nc2ccccc2)c1N | 14.1
14 | CN1CCN(C(=S)N2CCN(C)CC2)CC1 | > 100
15 | O=Cc1[nH]c(=O)[nH]c(=O)c1C(=O)O | > 100
16 | Nc1nc(SC/C=C/c2ccccc2)c2[nH]cnc2n1 | > 100
17 | CC(=O)c1c(C)n([O-])c2cc(Cl)c(Cl)cc2[n+]1=O | 24.4
18 | CC1CCC(=O)C(C(=O)CC2CC(=O)N(C)C(=O)C2)C1 (configuration not stated) | > 100
19 | C/C=C(/C)C(=O)O[C@@H]1CCN2CC[C@H](COC(=O)/C(=C/C)CO)C12 (some centres not stated) | > 100

Each molecule was assayed on K-562 leukemia (assay: DTP human tumour cell line panel, 48 h).

Row | Structure (SMILES) | TGI [µM]
20 | CN(CC(=O)O)c1ncc2c(n1)CCCC2 | > 100
21 | N#Cc1c(N)nc2n[nH]c(N)c2c1-c1ccc(Cl)cc1 | > 100
22 | Oc1[nH]c2ccccc2c1N=NC(=S)Nc1cccc(Cl)c1 | 50
23 | COc1cc(NS(C)(=O)=O)ccc1Nc1c2ccccc2nc2c1[nH]c1ccc(NC3OC(CO)C(O)C(O)C3O)cc12 (configuration not stated) | 20.3
24 | O=C(O)CCC(NC(=O)OCc1ccccc1)C(=O)NC(Cc1cnc[nH]1)C(=O)O (stereo not drawn) (Cbz-Glu-His-OH; configuration not given here) | > 100
25 | O=[N+]([O-])/C(C(Cl)=C(Cl)Cl)=C(/Cl)Sc1ccccc1 | 2.4
26 | CCOC(=O)c1nnc2c(C(=O)OCC)c3ccccc3n2c1N | > 100
27 | Clc1ccc(C2C3COc4ccccc4C3=NN2c2ccccc2)cc1 (configuration not stated) | 21.9
28 | NC(=O)C(C(N)=O)=C(O)C(=O)/C=C(\O)c1ccccc1 | 29.9
29 | Cn1ccc(C(=O)NCCN(CCNC(=O)c2ccn(C)c(=O)c2O)CCNC(=O)c2cccc(=O)n2O)c(O)c1=O | > 100
30 | Cc1cc(S(=O)(=O)Nc2n[nH]c(N)n2)c(SCC(=O)O)cc1Cl | > 10
31 | CCOC(=O)C12OC(CCC1=O)C(C(=O)OC)=C2C(=O)OC (configuration not stated) | > 10
32 | CC(=O)c1[nH]c(NCc2ccccc2)c(C(=S)Nc2ccccc2)c1N | 76.1
33 | CN1CCN(C(=S)N2CCN(C)CC2)CC1 | > 100
34 | O=Cc1[nH]c(=O)[nH]c(=O)c1C(=O)O | > 100
35 | Nc1nc(SC/C=C/c2ccccc2)c2[nH]cnc2n1 | > 100
36 | CC(=O)c1c(C)n([O-])c2cc(Cl)c(Cl)cc2[n+]1=O | 95.4
37 | CC1CCC(=O)C(C(=O)CC2CC(=O)N(C)C(=O)C2)C1 (configuration not stated) | > 100
38 | C/C=C(/C)C(=O)O[C@@H]1CCN2CC[C@H](COC(=O)/C(=C/C)CO)C12 (some centres not stated) | 18.3

Each molecule was assayed on LOX IMVI melanoma (assay: DTP human tumour cell line panel, 48 h).

Row | Structure (SMILES) | TGI [µM]
39 | CN(CC(=O)O)c1ncc2c(n1)CCCC2 | > 100
40 | N#Cc1c(N)nc2n[nH]c(N)c2c1-c1ccc(Cl)cc1 | 16.9
41 | Oc1[nH]c2ccccc2c1N=NC(=S)Nc1cccc(Cl)c1 | 33.4
42 | COc1cc(NS(C)(=O)=O)ccc1Nc1c2ccccc2nc2c1[nH]c1ccc(NC3OC(CO)C(O)C(O)C3O)cc12 (configuration not stated) | 1.18
43 | O=C(O)CCC(NC(=O)OCc1ccccc1)C(=O)NC(Cc1cnc[nH]1)C(=O)O (stereo not drawn) (Cbz-Glu-His-OH; configuration not given here) | > 100
44 | O=[N+]([O-])/C(C(Cl)=C(Cl)Cl)=C(/Cl)Sc1ccccc1 | 3.65
45 | CCOC(=O)c1nnc2c(C(=O)OCC)c3ccccc3n2c1N | > 100
46 | Clc1ccc(C2C3COc4ccccc4C3=NN2c2ccccc2)cc1 (configuration not stated) | > 48.7
47 | NC(=O)C(C(N)=O)=C(O)C(=O)/C=C(\O)c1ccccc1 | > 100
48 | Cn1ccc(C(=O)NCCN(CCNC(=O)c2ccn(C)c(=O)c2O)CCNC(=O)c2cccc(=O)n2O)c(O)c1=O | > 100
49 | Cc1cc(S(=O)(=O)Nc2n[nH]c(N)n2)c(SCC(=O)O)cc1Cl | > 10
50 | CCOC(=O)C12OC(CCC1=O)C(C(=O)OC)=C2C(=O)OC (configuration not stated) | > 10
51 | CC(=O)c1[nH]c(NCc2ccccc2)c(C(=S)Nc2ccccc2)c1N | 32.8
52 | CN1CCN(C(=S)N2CCN(C)CC2)CC1 | > 100
